Test results reported in patent publication US10174029B2, “Pyrimidine-2,4-diamine derivatives for treatment of cancer” (THOMAS HELLEDAYS STIFTELSE FOR MEDICINSK FORSKNING, priority 2012, dated 2019).

Target: MTH1 (Homo sapiens, UniProt P36639)
Assay: MTH1 enzymatic assay and IC50 value determination (malachite green)
Type: biochemical
Conditions: MTH1 4.8 nM, dGTP 100 μM, 15 minutes at 22° C.
Summary of the method: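 Malachite green detection of Pi after coupling dGTP hydrolysis to excess E. coli pyrophosphatase; 4.8 nM MTH1, 100 μM dGTP in Tris-acetate buffer with Mg2+ and DTT, 1% DMSO, 15 min at 22 °C. 12-point 1:3 compound series; absorbance at 630 nm; IC50 by four-parameter nonlinear regression.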

Compound | IC50 (group: less than 200 nM) | IC50 (group: between 2 μM and 10 μM)
Nc1nc(NCCc2ccc(S(N)(=O)=O)cc2)cc(-c2cccc(Cl)c2Cl)n1 [Example 296, 4-(2-{[2-amino-6-(2,3-dichlorophenyl)pyrimidin-4-yl]amino}ethyl)benzene-1-sulfonamide] | < 200 nM | –
C[C@@H]1[C@H]2C[C@@H](C[C@H]1Nc1cc(-c3cccc(Cl)c3Cl)nc(N)n1)C2(C)C [Example 299, 6-(2,3-dichlorophenyl)-4-N-[(1R,2R,3R,5S)-2,6,6-trimethylbicyclo[3.1.1]heptan-3-yl]pyrimidine-2,4-diamine] | – | 2000 to 10000 nM
CNc1cc(-c2cccc(NC(=O)/C=C/CN(C)C)c2)nc(N)n1 [Example 312, (2E)-N-{3-[2-Amino-6-(methylamino)pyrimidin-4-yl]phenyl}-4-(dimethylamino)but-2-enamide] | < 200 nM | –
CNc1cc(-c2cccc(NC(=O)CO)c2)nc(N)n1 [Example 322, N-{3-[2-Amino-6-(methylamino)pyrimidin-4-yl]phenyl}-2-hydroxyacetamide] | < 200 nM | –
CNc1cc(-c2ccc(C(=O)C(F)(F)F)cc2)nc(N)n1 [Example 327, 1-{4-[2-Amino-6-(methylamino)pyrimidin-4-yl]phenyl}-2,2,2-trifluoroethan-1-one] | < 200 nM | –
Cc1cccc(-c2cc(NCCc3ccc(S(N)(=O)=O)cc3)nc(N)n2)c1C [Example 330, 4-(2-{[2-Amino-6-(2,3-dimethylphenyl)pyrimidin-4-yl]amino}ethyl)benzene-1-sulfonamide] | < 200 nM | –
Cc1cccc(-c2cc(NCCc3ccc(S(C)(=O)=O)cc3)nc(N)n2)c1C [Example 331, 6-(2,3-Dimethylphenyl)-4-N-[2-(4-methanesulfonylphenyl)ethyl]pyrimidine-2,4-diamine] | < 200 nM | –
Cc1cccc(-c2cc(NCCc3ccc(C#N)cc3)nc(N)n2)c1C [Example 333, 4-(2-{[2-Amino-6-(2,3-dimethylphenyl)pyrimidin-4-yl]amino}ethyl)benzonitrile] | < 200 nM | –
Cc1cccc(-c2cc(NCCc3ccncc3)nc(N)n2)c1C [Example 334, 6-(2,3-Dimethylphenyl)-4-N-[2-(pyridin-4-yl)ethyl]pyrimidine-2,4-diamine] | < 200 nM | –
Cc1cccc(-c2cc(NCCOc3ccc(C#N)cc3)nc(N)n2)c1C [Example 335, 4-(2-{[2-Amino-6-(2,3-dimethylphenyl)pyrimidin-4-yl]amino}ethoxy)benzonitrile] | < 200 nM | –
Cc1cccc(-c2cc(NCC(C)c3ccc(Cl)cc3)nc(N)n2)c1C (stereo not shown) [Example 343, 4-N-[2-(4-Chlorophenyl)propyl]-6-(2,3-dimethylphenyl)pyrimidine-2,4-diamine] | < 200 nM | –
Cc1cccc(-c2cc(NCc3ccc(N(C)C)cc3)nc(N)n2)c1C [Example 346, 4-N-{[4-(Dimethylamino)phenyl]methyl}-6-(2,3-dimethylphenyl)pyrimidine-2,4-diamine] | < 200 nM | –
Cc1cccc(-c2cc(NCc3cnn(-c4ccc(F)cc4)c3)nc(N)n2)c1C [Example 348, 6-(2,3-Dimethylphenyl)-4-N-{[1-(4-fluorophenyl)-1H-pyrazol-4-yl]methyl}pyrimidine-2,4-diamine] | < 200 nM | –
Cc1cccc(-c2cc(NCCc3n[nH]c(-c4ccncc4)n3)nc(N)n2)c1C [Example 349, 6-(2,3-dimethylphenyl)-4-N-{2-[5-(pyridin-4-yl)-1H-1,2,4-triazol-3-yl]ethyl}pyrimidine-2,4-diamine] | < 200 nM | –
COc1ccc2nc(CCNc3cc(-c4cccc(C)c4C)nc(N)n3)[nH]c2c1 [Example 351, 6-(2,3-Dimethylphenyl)-4-N-[2-(6-methoxy-1H-1,3-benzodiazol-2-yl)ethyl]pyrimidine-2,4-diamine] | < 200 nM | –
Cc1cccc(-c2cc(NCCCNS(=O)(=O)c3cccc(C#N)c3)nc(N)n2)c1C [Example 374, N-(3-{[2-Amino-6-(2,3-dimethylphenyl)pyrimidin-4-yl]amino}propyl)-3-cyanobenzene-1-sulfonamide] | < 200 nM | –
Cc1cccc(-c2cc(NCCCNS(=O)(=O)c3ccccc3)nc(N)n2)c1C [Example 376, N-(3-{[2-Amino-6-(2,3-dimethylphenyl)pyrimidin-4-yl]amino}propyl)benzenesulfonamide] | < 200 nM | –
C=CCNc1cc(-c2cccc(C)c2C)nc(N)n1 [Example 379, 6-(2,3-Dimethylphenyl)-4-N-(prop-2-en-1-yl)pyrimidine-2,4-diamine] | < 200 nM | –
Cc1cccc(-c2cc(NCCCNS(=O)(=O)c3c(C)nn(C)c3Cl)nc(N)n2)c1C [Example 389, N-(3-{[2-Amino-6-(2,3-dimethylphenyl)pyrimidin-4-yl]amino}propyl)-5-chloro-1,3-dimethyl-1H-pyrazole-4-sulfonamide] | < 200 nM | –

Other lines, results leading:

IC50 (group: less than 200 nM) | IC50 (group: between 2 μM and 10 μM) | Compound
< 200 nM | – | CC1CCN(Cc2cccc(CNc3cc(-c4cccc(Cl)c4Cl)nc(N)n3)c2)CC1 [Example 300, 6-(2,3-Dichlorophenyl)-4-N-({3-[(4-methylpiperidin-1-yl)methyl]phenyl}methyl)-pyrimidine-2,4-diamine]
< 200 nM | – | Nc1nc(NCCc2ccc(O)cc2)cc(-c2cccc(Cl)c2Cl)n1 [Example 301, 4-(2-{[2-Amino-6-(2,3-dichlorophenyl)pyrimidin-4-yl]amino}ethyl)phenol]
< 200 nM | – | Nc1nc(NC23CC4CC(CC2C4)C3)cc(-c2cccc(Cl)c2Cl)n1 [Example 304, 6-(2,3-Dichlorophenyl)-4-N-{tricyclo[3.3.1.0^3,7]nonan-3-yl}pyrimidine-2,4-diamine]
< 200 nM | – | CNc1cc(-c2cccc(NC(=O)c3ncccc3O)c2)nc(N)n1 [Example 308, N-{3-[2-amino-6-(methylamino)pyrimidin-4-yl]phenyl}-3-hydroxypyridine-2-carboxamide]
< 200 nM | – | C=CS(=O)(=O)Nc1cccc(-c2cc(NC)nc(N)n2)c1 [Example 313, N-{3-[2-amino-6-(methylamino)pyrimidin-4-yl]phenyl}ethene-1-sulfonamide]
< 200 nM | – | CNc1cc(-c2cccc(NC(=O)C(C)=O)c2)nc(N)n1 [Example 315, N-{3-[2-Amino-6-(methylamino)pyrimidin-4-yl]phenyl}-2-oxopropanamide]
< 200 nM | – | CNc1cc(-c2cccc(NC(=O)C(=O)c3ccccc3)c2)nc(N)n1 [Example 316, N-{3-[2-Amino-6-(methylamino)pyrimidin-4-yl]phenyl}-2-oxo-2-phenylacetamide]
< 200 nM | – | C=CC(=O)Nc1ccc(-c2cc(NC)nc(N)n2)cc1 [Example 317, N-{4-[2-Amino-6-(methylamino)pyrimidin-4-yl]phenyl}prop-2-enamide]
< 200 nM | – | CNc1cc(-c2cccc(NC(=O)C(O)c3ccc(Cl)cc3)c2)nc(N)n1 (stereo not shown) [Example 323, N-{3-[2-Amino-6-(methylamino)pyrimidin-4-yl]phenyl}-2-(4-chlorophenyl)-2-hydroxyacetamide]
< 200 nM | – | CNc1cc(-c2cccc(NC(=O)C(O)c3ccccc3)c2)nc(N)n1 (stereo not shown) [Example 324, N-{3-[2-Amino-6-(methylamino)pyrimidin-4-yl]phenyl}-2-hydroxy-2-phenylacetamide]
< 200 nM | – | CNc1cc(-c2cccc(NC(=O)c3ccccc3O)c2)nc(N)n1 [Example 326, N-{3-[2-Amino-6-(methylamino)pyrimidin-4-yl]phenyl}-2-hydroxybenzamide]
< 200 nM | – | CNc1cc(-c2ccc(CN)cc2)nc(N)n1 [Example 329, 6-[4-(Aminomethyl)phenyl]-4-N-methylpyrimidine-2,4-diamine]
< 200 nM | – | Cc1cccc(-c2cc(NCc3ccc(S(N)(=O)=O)cc3)nc(N)n2)c1C [Example 336, 4-({[2-Amino-6-(2,3-dimethylphenyl)pyrimidin-4-yl]amino}methyl)benzene-1-sulfonamide]
– | 2000 to 10000 nM | COc1ccc(C(CNc2cc(-c3cccc(C)c3C)nc(N)n2)N2CCCC2)cc1 (stereo not shown) [Example 345, 6-(2,3-Dimethylphenyl)-4-N-[2-(4-methoxyphenyl)-2-(pyrrolidin-1-yl)ethyl]pyrimidine-2,4-diamine]
< 200 nM | – | Cc1cccc(-c2cc(NCC3CCCN(c4ncccn4)C3)nc(N)n2)c1C (stereo not shown) [Example 350, 6-(2,3-Dimethylphenyl)-4-N-{[1-(pyrimidin-2-yl)piperidin-3-yl]methyl}pyrimidine-2,4-diamine]
< 200 nM | – | Cc1cccc(-c2cc(NCCCNS(=O)(=O)c3c(C)noc3C)nc(N)n2)c1C [Example 359, N-(3-{[2-Amino-6-(2,3-dimethylphenyl)pyrimidin-4-yl]amino}propyl)-3,5-dimethyl-1,2-oxazole-4-sulfonamide]
< 200 nM | – | Cc1cccc(-c2cc(NCCCNC(=O)Nc3cc(Cl)nc(Cl)c3)nc(N)n2)c1C [Example 361, 3-(3-{[2-Amino-6-(2,3-dimethylphenyl)pyrimidin-4-yl]amino}propyl)-1-(2,6-dichloropyridin-4-yl)urea]
< 200 nM | – | CC(=O)Nc1cccc(OCCCNc2cc(-c3cccc(C)c3C)nc(N)n2)c1 [Example 363, N-[3-(3-{[2-Amino-6-(2,3-dimethylphenyl)pyrimidin-4-yl]amino}propoxy)phenyl]acetamide]
< 200 nM | – | Cc1cccc(-c2cc(NCCCNC(=O)c3cccc(Br)c3)nc(N)n2)c1C [Example 367, N-(3-{[2-Amino-6-(2,3-dimethylphenyl)pyrimidin-4-yl]amino}propyl)-3-bromobenzamide]
< 200 nM | – | Cc1cccc(-c2cc(NCCCNS(=O)(=O)c3cccc(F)c3)nc(N)n2)c1C [Example 381, N-(3-{[2-Amino-6-(2,3-dimethylphenyl)pyrimidin-4-yl]amino}propyl)-3-fluorobenzene-1-sulfonamide]
< 200 nM | – | C#CCNc1cc(-c2cccc(C)c2C)nc(N)n1 [Example 386, 6-(2,3-Dimethylphenyl)-4-N-(prop-2-yn-1-yl)pyrimidine-2,4-diamine]
